The values below come from patent US9856478B2, “Method for selectively inhibiting ACAT1 in the treatment of obesity, metabolic syndrome, and atherosclerosis” (Trustees of Dartmouth College, priority 2013, dated 2018).

One series deals with blood myeloid cells. Kind of series: Blood myeloid cells (CD11b+Gr1+) after 5-FU injection, flow cytometry. It is filed as in vivo, mouse. The following applies: 150 mg/kg single injection, six days post-injection. As to the method: It also had shown previously that global Acat1^−/− induces leukocytosis (Huang et al. 2013. Arterioscl. Thromb. Vasc. Biol. 33:2081-2087). Therefore, experiments were performed to compare the hematopoietic recovery of wild-type, global Acat1^−/−, and Acat1^−M/−M mice after injection of the myelo-suppressive agent 5-fluorouracil (5-FU; 150 mg/kg) (Lindner et al. 1960. Cancer Res. 20:497-502). Mice from all three genotypes (7-9 weeks of age) were administered a single 5-FU injection. After injection, blood myeloid cells (CD11b+Gr1+) isolated from these mice were monitored by flow cytometry. […] Six days post-injection, almost all of the myeloid cells in wild-type, Acat1^−/− and Acat1^−M/−M mice were depleted by 5-FU.

A further series relates to ACAT2. The following applies: cited from earlier work.
Series [1] has as its system cholesteryl ester synthesis in peritoneal macrophages. Briefly: 3H-oleate incorporation into cholesteryl esters in peritoneal macrophages. It is filed as cell-based, mouse. The following applies: 5 μM, 16 hours, agLDL, macrophages from wild-type or LyzCre+/+ mice. As to the method: Peritoneal macrophages were isolated as previously described (Sakashita et al. 2010. J. Lipid Res. 51:1263-1272), four days after injecting 1 ml of thioglycolate (TG) (3% wt/vol; Sigma Chemical Co.). Peritoneal leukocytes were isolated and incubated in 6-well culture dishes with 2 ml/well DMEM medium with 10% FBS at 37° C. for two hours. After washing with PBS two times, the firmly attached macrophages were used to measure ACAT1 mRNA and protein level.
Experiments were then performed to confirm that ACAT1 was specifically deleted in macrophages of the Acat1^−M/−M mouse. Peritoneal macrophages were isolated from Acat1^−M/−M and Acat1+^M/+M mice four days after thioglycolate injection. The cells were incubated with aggregated LDL (agLDL), an agent known to provide large amount of cholesterol to macrophages (Khoo et al. 1988. Arteriosclerosis 8:348-358), with or without an ACAT inhibitor at a saturating concentration (Compound F12511; at 5 μM) (Chang et al. 2000. J. Biol. Chem. 275:28083-28092), for 16 hours, followed by ^3H-oleate incorporation to measure the biosynthesis of labeled cholesteryl esters. […] Next, ACAT1 mRNA and protein content were measured in wild-type and Acat1^−M/−M macrophages. […] In wild-type mice, ACAT1 is abundantly expressed in the adrenal glands.

In another series the test system is ACAT1. The following applies: cited from earlier work.
The next series addresses T1, hACAT-2 (Homo sapiens, UniProt O75908).
T1 sequence (O75908 1-522): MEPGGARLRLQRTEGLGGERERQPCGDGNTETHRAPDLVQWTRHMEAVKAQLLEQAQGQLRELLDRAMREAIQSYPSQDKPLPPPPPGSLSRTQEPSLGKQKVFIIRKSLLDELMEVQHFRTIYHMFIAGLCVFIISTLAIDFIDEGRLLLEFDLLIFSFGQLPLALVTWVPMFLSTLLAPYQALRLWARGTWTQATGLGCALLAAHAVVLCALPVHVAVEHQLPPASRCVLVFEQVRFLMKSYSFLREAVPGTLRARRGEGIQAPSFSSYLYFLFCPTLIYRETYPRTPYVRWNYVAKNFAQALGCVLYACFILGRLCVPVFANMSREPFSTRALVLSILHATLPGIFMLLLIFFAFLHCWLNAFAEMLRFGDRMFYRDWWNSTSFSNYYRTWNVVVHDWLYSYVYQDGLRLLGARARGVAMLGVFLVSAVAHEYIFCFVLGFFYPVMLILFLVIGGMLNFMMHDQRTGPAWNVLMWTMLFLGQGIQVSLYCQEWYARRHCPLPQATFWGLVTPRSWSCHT
The following applies: cited from earlier work.

A further series relates to mouse ACAT1. Briefly: ACAT1 protein by western blot in transfected NIH-3T3 mouse fibroblasts. The following applies: NIH-3T3, rAAV vector transfection, 48 hours, GFP-positive cells. It is filed as cell-based. The text has this:
NIH-3T3 mouse fibroblasts were transiently transfected with one of several rAAV vectors encoding EmGFP and microRNA (miR) #52, #53, #54 or #55. Forty-eight hours post-transfection, GFP-positive cells were harvested by FACS. GFP-positive cells were washed then lysed in 10% SDS and syringe homogenized. Twenty microgram of protein per sample was subjected to SDS-PAGE. After western blot analysis, bands were quantified with ImageJ. ACAT1 intensity was normalized to GAPDH as a loading control and expressed as relative intensity.
Four different siRNA molecules (#52-#55; Table 3) targeting the mouse Acat1 gene were inserted into an endogenous mouse microRNA (miR) scaffold using Invitrogen's RNAi design tool. The artificial miRs were ligated into the mammalian expression vector pcDNA6.2-GW/EmGFP-miR. […] The miRs were delivered to the cells using a standard cDNA transfection protocol.

For `O=c1[nH]cc(F)c(=O)[nH]1` [5-FU, 5-fluorouracil], the “depletion of blood myeloid cells” value with blood myeloid cells is on record as “almost all”.
Take `CC(C)c1cccc(C(C)C)c1NC(=O)CC(=O)C(Cc1ccccc1)Cc1ccc(O)cc1` (stereo not shown) [Compound 1B]: the IC50 in the series with ACAT2 is 1.5 µM.
Take `CC(C)c1cccc(C(C)C)c1NC(=O)CC(=O)C(Cc1ccccc1)Cc1ccc(OC(=O)CCCCCCN2CCCCCC2=O)cc1` (stereo not shown) [Compound 1C]: the IC50 in the series on ACAT2 is 0.53 µM.
In the case of `CCCCCCCCCCCCS[C@H](C(=O)Nc1cc(C)c(O)c(C)c1C)c1ccccc1` [Eflucimibe (F12511)], the “cholesteryl ester synthesis rate” value in series [1] is listed as “drastically reduced”. In the series with ACAT2, the IC50 is 0.11 µM.
Turning to `CCCCCCCC(=O)Nc1ccccc1-c1ccccc1` [compound 1], the IC50 in the series on ACAT2 was 230 µM.
On to `CCCCCCCCC(=O)Nc1ccccc1-c1ccccc1` [compound 2], for which the IC50 in the series on ACAT2 is 414 µM.
Consider `CCCCCCCC(=O)Nc1cc(-c2ccccc2)nn1-c1ccccc1` [compound 13], for which, in the series on ACAT2, the half-inhibitory concentration (IC50) was 53 µM.
`CCCCCCCCC(=O)Nc1cc(-c2ccccc2)nn1-c1ccccc1` [compound 14]: in the series with ACAT2, the IC50 was 75 µM.
As for `CCCCCCCCCNc1cc(-c2ccccc2)nn1-c1ccccc1` [compound 16], in the series with ACAT2, the IC50 is 97 µM.
For the compound `CCOC(=O)OC(=O)OCC` [diethyl pyrocarbonate], in the series on ACAT1, the IC50 is 44 µM and the “greater activity on ACAT1 compared to ACAT-2” value is on record as 4 fold. The 50% inhibitory concentration (IC50) with ACAT2 is 170 µM.
`COc1ccc([C@@H](O)[C@@H](C)Oc2ccc([C@H]3O[C@H](c4ccc(O[C@H](C)[C@H](O)c5ccc6c(c5)OCO6)c(OC)c4)[C@H](C)[C@H]3C)cc2OC)cc1OC` [manassantin B]: the “inhibition of hACAT-2” value on hACAT-2 (at 1 mM) is recorded as 32%.
With “miR Negative Control: negative control miR 5′-TACTGCGCGTGGAGACG-3′ (SEQ ID NO:17), matches no known vertebrate gene (chemistry not given here)”, in the series with mouse ACAT1, the “Relative Intensity (ACAT1 normalized to GAPDH)” value was found to be 1.02.
For the compound saucerneol B, on hACAT-2, the IC50 was 124 µM.
